# Experimental data from a compilation of properties of binary mixtures (doi:10.1016/j.fluid.2017.10.015).
# Several values for one entry are separate records, joined by “and”; a condition that tells them apart may be missing. Identical values can stand only once.
# Assay: xn = mol fraction of the nth substance listed
# Conditions: 100 kPa
"electrical conductivity (298.15 K, x1 = 0.0001) [S/m]","electrical conductivity (308.15 K, x1 = 0.0001) [S/m]","electrical conductivity (318.15 K, x1 = 0.0001)","electrical conductivity (328.15 K, x1 = 0.0001)","electrical conductivity (298.15 K, x2 = 0)","electrical conductivity (308.15 K, x2 = 0)","electrical conductivity (318.15 K, x2 = 0)","electrical conductivity (328.15 K, x2 = 0)",Structure (SMILES)
0.0115,0.0161,0.0185 S/m and 0.0235 S/m,0.0231 S/m and 0.0293 S/m,–,–,–,–,CCCCCCCCCCCC[N+]1(C)CCCC1.O=C([O-])c1ccccc1O + O
–,–,–,0.0271 S/m,–,–,–,–,CCCCCCCCCCCC[N+]1(C)CCCCC1.O=C([O-])c1ccccc1O + O
–,–,–,–,0.0089 S/m and 0.0093 S/m and 0.0105 S/m,0.0116 S/m and 0.0126 S/m and 0.0139 S/m,0.0153 S/m and 0.0171 S/m,0.0172 S/m and 0.0186 S/m and 0.0212 S/m,O + CCCCCCCCCCCC[N+]1(C)CCCC1.O=C([O-])c1ccccc1O
